Tests used:
Barnyardgrass = experiment: Example 17 selective herbicidal activity in corn crop, weed kill; format: in vivo, Echinochloa crusgalli; details: Echinochloa crus-galli, 3-4 weeks after planting
Description: (§1) This example illustrates the selective herbicidal activity of two of the presently preferred compounds of this invention against various weed species in a corn crop.
(§2) Plots of light sandy soil, cleared of all weeds, are uniformly treated with aqueous dispersions prepared from an emulsifiable concentrate containing 2- 4 pounds of active ingredient per gallon. Diluted aqueous dispersions are applied as surface treatments at 2.0, 1.0, 0.5, and 0.25 pound of active ingredient per acre (lb/A).
(§3) The treated test plots are sown to corn and with seeds of the following weed species:
(§4) Three to four weeks after planting, the degree of damage to both the corn stands and the weed plants is assessed from a rating of 0% (no injury) to 100% (complete destruction).

Yellow Foxtail [1] = experiment: Example 18 preemergence herbicide test in different soils, % control; format: in vivo; details: three weeks
Method: (§5) To further illustrate the herbicidal activity of compounds of this invention in different types of soil as would be encountered in different crop growing localities, a preemergence herbicide test is conducted generally as outlined previously herein. Two light sandy soils are employed containing 0.7% and 1.8% organic matter (O.M.), respectively, along with two loam-type, heavier soils containing either 2.0% or 5-5.5% organic matter (O.M.).
(§6) The test plots are all sprayed uniformly with formulations of the test compounds providing 2.0, 1.0, 0.5, and 0.25 pound of active chemical per acre (lb/A).
(§7) Prior to treatment, the soil plots are sown to field corn, soybean, and grain sorghum crops and seeds of barnyard-grass and yellow foxtail.
Three weeks after planting, the percent control of plant growth is rated from 0% (no injury) to 100% (total destruction).

Corn [2] = experiment: Field preemergence test, phytotoxic effects on crop; format: in vivo, sweet corn
Description: (§8) Test plots of fertilized, light sandy soil containing 0.7% organic matter are sprayed uniformly with aqueous suspensions prepared from emulsifiable concentrates containing 12%, by weight, of the test chemicals diluted to provide dosage rates of the test compounds corresponding to 2.0, 1.0, 0.5, and 0.25 pound per acre (lb/A). The plots are then sown with seeds of the following crop plants: sweet corn, cotton (Coker 413) and soybeans, var. Davis. Seeds of the following weed plants are planted: redroot pigweed, prickly sida, common lambsquarter, goosegrass and giant foxtail.
Three to four weeks after planting, percent control (plant kill) of the test plants is estimated, from a rating of 0 which denotes no injury to the plant up to 100 which denotes complete destruction. The herbicidal action of the test compounds obtained on the weed species is as follows:
Phytotoxic effects observed on the crop species is estimated with results as follows: […]

Goosegrass = experiment: Field preemergence test, weed control; format: in vivo; details: 3-4 weeks after planting
Description: as §8
(§9) Three to four weeks after planting, percent control (plant kill) of the test plants is estimated, from a rating of 0 which denotes no injury to the plant up to 100 which denotes complete destruction. The herbicidal action of the test compounds obtained on the weed species is as follows: […]

Common Lambsquarter = experiment: Field preemergence test, weed control; format: in vivo; details: 3-4 weeks after planting
Description: as §8, §9

Yellow Foxtail [3] = experiment: Example 17 selective herbicidal activity in corn crop, weed kill; format: in vivo, Setaria lutescens; details: Setaria, 3-4 weeks after planting
Description: as §1, §2, §3, §4

Corn [4] = experiment: Example 18 phytotoxic effects on crop stands in different soils; format: in vivo, field corn
Method: as §5, §6, §7
Three weeks after planting, the percent control of plant growth is rated from 0% (no injury) to 100% (total destruction). The results obtained are as follows:
Phytotoxic effects on the crop stands are similarly rated with the following results: […]

Fall Panicum = experiment: Example 17 selective herbicidal activity in corn crop, weed kill; format: in vivo; details: Panicum dichotomiflorum, 3-4 weeks after planting
Description: as §1, §2, §3, §4

Johnsongrass = experiment: as above; format: in vivo; details: Sorghum halepense, 3-4 weeks after planting
Description: as §1, §2, §3, §4

Velvetleaf = experiment: as above; format: in vivo; details: Abutilon theophrasti, 3-4 weeks after planting
Description: as §1, §2, §3, §4

[5] = 0.5 lb/A, Heavy Soil 5-5.5% O.M.
[6] = 0.5 lb/A, Medium Soil 2.0% O.M.
[7] = 1.0 lb/A, Heavy Soil 5-5.5% O.M.
[8] = 1.0 lb/A, Medium Soil 2.0% O.M.
[9] = 2.0 lb/A, Heavy Soil 5-5.5% O.M.
[10] = 2.0 lb/A, Medium Soil 2.0% O.M.

For C#CCN(C(=O)CCl)c1c(C)cccc1CC [Example 15, 2-Chloro-2'-methyl-6'-ethyl-N-propargylacetanilide], the mortality at 280.212 g/ha (Barnyardgrass; 0.25 lb/A) was 88%, the mortality at 560.425 g/ha (Barnyardgrass; 0.5 lb/A) was 100% and the mortality at 1120.85 g/ha (Barnyardgrass; 1.0 lb/A) was 100%. The mortality at 2241.7 g/ha (Barnyardgrass; 2.0 lb/A) was 100%, the “% Control, Yellow Foxtail” value (Yellow Foxtail [1]; [5]) was 98% and the “% Control, Yellow Foxtail” value (Yellow Foxtail [1]; [6]) was 100%. The “% Control, Yellow Foxtail” value (Yellow Foxtail [1]; 0.5 lb/A, Sand 0.7% O.M.) was 45%, the “% Control, Yellow Foxtail” value (Yellow Foxtail [1]; 0.5 lb/A, Sand 1.8% O.M.) was 30% and the “% Control, Yellow Foxtail” value (Yellow Foxtail [1]; [7]) was 100%. For the same compound, the “% Control, Yellow Foxtail” value (Yellow Foxtail [1]; [8]) was 100%, the “% Control, Yellow Foxtail” value (Yellow Foxtail [1]; 1.0 lb/A, Sand 0.7% O.M.) was 65% and the “% Control, Yellow Foxtail” value (Yellow Foxtail [1]; 1.0 lb/A, Sand 1.8% O.M.) was 65%. The “% Control, Yellow Foxtail” value (Yellow Foxtail [1]; [9]) was 100%, the “% Control, Yellow Foxtail” value (Yellow Foxtail [1]; [10]) was 100% and the “% Control, Yellow Foxtail” value (Yellow Foxtail [1]; 2.0 lb/A, Sand 0.7% O.M.) was 90%. For the same compound, the “% Control, Yellow Foxtail” value (Yellow Foxtail [1]; 2.0 lb/A, Sand 1.8% O.M.) was 85%, the “% Crop Kill, Corn” value (Corn [2]; 0.5 lb/A) was 0% and the “% Crop Kill, Corn” value (Corn [2]; 1.0 lb/A) was 3%. The “% Crop Kill, Corn” value (Corn [2]; 2.0 lb/A) was 12%, the “% Weed Control, Goosegrass” value (Goosegrass; 0.25 lb/A) was 87% and the “% Weed Control, Goosegrass” value (Goosegrass; 0.5 lb/A) was 97%. The “% Weed Control, Goosegrass” value (Goosegrass; 1.0 lb/A) was 100%, the “% Weed Control, Goosegrass” value (Goosegrass; 2.0 lb/A) was 100% and the “% Weed Control, Common Lambsquarter” value (Common Lambsquarter; 0.25 lb/A) was 95%. For the same compound, the “% Weed Control, Common Lambsquarter” value (Common Lambsquarter; 0.5 lb/A) was 98%, the “% Weed Control, Common Lambsquarter” value (Common Lambsquarter; 1.0 lb/A) was 100% and the “% Weed Control, Common Lambsquarter” value (Common Lambsquarter; 2.0 lb/A) was 100%. For the same compound, the mortality at 280.212 g/ha (Yellow Foxtail [3]; 0.25 lb/A) was 82%, the mortality at 560.425 g/ha (Yellow Foxtail [3]; 0.5 lb/A) was 97% and the mortality at 1120.85 g/ha (Yellow Foxtail [3]; 1.0 lb/A) was 100%. For the same compound, the mortality at 2241.7 g/ha (Yellow Foxtail [3]; 2.0 lb/A) was 100%, the “% Phytotoxicity, Corn” value (Corn [4]; [5]) was 0% and the “% Phytotoxicity, Corn” value (Corn [4]; [6]) was 0%. The “% Phytotoxicity, Corn” value (Corn [4]; 0.5 lb/A, Sand 0.7% O.M.) was 0%, the “% Phytotoxicity, Corn” value (Corn [4]; 0.5 lb/A, Sand 1.8% O.M.) was 0% and the “% Phytotoxicity, Corn” value (Corn [4]; [7]) was 0%. The “% Phytotoxicity, Corn” value (Corn [4]; [8]) was 10%, the “% Phytotoxicity, Corn” value (Corn [4]; 1.0 lb/A, Sand 0.7% O.M.) was 0% and the “% Phytotoxicity, Corn” value (Corn [4]; 1.0 lb/A, Sand 1.8% O.M.) was 0%. For the same compound, the “% Phytotoxicity, Corn” value (Corn [4]; [9]) was 10%, the “% Phytotoxicity, Corn” value (Corn [4]; [10]) was 55% and the “% Phytotoxicity, Corn” value (Corn [4]; 2.0 lb/A, Sand 0.7% O.M.) was 10%. For the same compound, the “% Phytotoxicity, Corn” value (Corn [4]; 2.0 lb/A, Sand 1.8% O.M.) was 0%, the mortality at 280.212 g/ha (Fall Panicum; 0.25 lb/A) was 78% and the mortality at 560.425 g/ha (Fall Panicum; 0.5 lb/A) was 96%. The mortality at 1120.85 g/ha (Fall Panicum; 1.0 lb/A) was 97%, the mortality at 2241.7 g/ha (Fall Panicum; 2.0 lb/A) was 100% and the mortality at 280.212 g/ha (Johnsongrass; 0.25 lb/A) was 0%. It also gave a mortality at 560.425 g/ha (Johnsongrass; 0.5 lb/A) of 73%, a mortality at 1120.85 g/ha (Johnsongrass; 1.0 lb/A) of 100% and a mortality at 2241.7 g/ha (Johnsongrass; 2.0 lb/A) of 100%. The mortality at 280.212 g/ha (Velvetleaf; 0.25 lb/A) was 0%, the mortality at 560.425 g/ha (Velvetleaf; 0.5 lb/A) was 27% and the mortality at 1120.85 g/ha (Velvetleaf; 1.0 lb/A) was 37%. For the same compound, the mortality at 2241.7 g/ha (Velvetleaf; 2.0 lb/A) was 80%.
